Experimental data as given in article PMC3299084 (Journal of Medicinal Chemistry, 2012).
Peptide text beside a SMILES is read from it. * marks the point of attachment. X1 = CC(=O)O[C@H]1C(=O)[C@@]2(C)[C@H]([C@H](OC(=O)c3ccccc3)[C@]3(O)C[C@H](OC(=O)[C@H](OC(=O)COCC(=O)OCCCCCCn4cc(CCCC(=O)*)nn4)[C@@H](NC(=O)c4ccccc4)c4ccccc4)C(C)=C1C3(C)C)[C@]1(OC(C)=O)CO[C@@H]1C[C@@H]2O

Key:
EphA2 [1] = target: T1, EphA2 (Homo sapiens, UniProt P29317); experiment: EphA2 internalization into lysosomes, confocal imaging; format: cell-based; conditions: PC3 cells, 2 h, 100 μM conjugate or 0.2 μg/mL ephrin-A1 Fc
EphA2 [2] = target: T1, EphA2; experiment: Quantum dot internalization into lysosomes; conditions: PC3 prostate cancer cells (highly EphA2 expressing), 100 μM
EphA2 Fc = EphA2 Fc (Homo sapiens, UniProt P29317); experiment: ELISA displacement of ephrin-A5 AP from immobilized EphA2 Fc; conditions: ephrin-A5 AP binding to EphA2 Fc
PC3 cells [3] = experiment: ATP-Lite analysis of cell viability; format: cell-based, human; conditions: 72 hours, 10 nM, EphA2 overexpressing PC3
[4] = Bio-distribution: PTX levels in tumor and plasma by LC-MS/MS; format: in vivo, mice
Microsomal stability = format: in vitro ADME; conditions: rat, liver microsomes, pH 7.2
PC3 cells [5] = experiment: Release of native paclitaxel in the presence of PC3 cells; format: cell-based, human; conditions: in the presence of PC3 cells (data not shown)
PC3 tumor xenografts = conditions: intravenous, twice weekly for 3 weeks
Plasma stability = format: in vitro ADME; conditions: rat, plasma (fresh)

T1 sequence (P29317 24-976): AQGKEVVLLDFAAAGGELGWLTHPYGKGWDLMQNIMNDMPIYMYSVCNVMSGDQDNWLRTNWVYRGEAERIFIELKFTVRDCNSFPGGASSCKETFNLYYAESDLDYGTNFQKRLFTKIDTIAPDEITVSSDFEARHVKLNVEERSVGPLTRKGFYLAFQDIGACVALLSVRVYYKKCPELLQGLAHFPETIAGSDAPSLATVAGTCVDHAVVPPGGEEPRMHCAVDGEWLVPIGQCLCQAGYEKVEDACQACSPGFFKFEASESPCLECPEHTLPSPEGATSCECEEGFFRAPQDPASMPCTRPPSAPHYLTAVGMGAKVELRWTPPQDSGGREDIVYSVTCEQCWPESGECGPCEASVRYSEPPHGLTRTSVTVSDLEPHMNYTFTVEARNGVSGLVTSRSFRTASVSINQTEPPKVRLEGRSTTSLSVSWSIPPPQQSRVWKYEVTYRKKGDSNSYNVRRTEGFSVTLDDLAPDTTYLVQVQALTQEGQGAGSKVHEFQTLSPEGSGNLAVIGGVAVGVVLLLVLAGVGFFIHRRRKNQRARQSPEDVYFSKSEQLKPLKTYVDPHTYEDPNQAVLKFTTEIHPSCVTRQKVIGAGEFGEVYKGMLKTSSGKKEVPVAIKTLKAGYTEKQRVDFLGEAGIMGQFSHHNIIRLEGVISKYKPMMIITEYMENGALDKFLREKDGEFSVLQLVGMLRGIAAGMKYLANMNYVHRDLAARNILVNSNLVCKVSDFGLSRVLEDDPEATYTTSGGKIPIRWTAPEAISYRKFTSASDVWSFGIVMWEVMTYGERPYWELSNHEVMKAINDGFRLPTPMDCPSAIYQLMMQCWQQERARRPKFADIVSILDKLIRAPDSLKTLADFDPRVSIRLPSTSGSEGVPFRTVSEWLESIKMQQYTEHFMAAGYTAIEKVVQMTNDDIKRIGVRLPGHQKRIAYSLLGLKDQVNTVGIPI
Chain of EphA2 Fc (P29317 24-537 limits assumed): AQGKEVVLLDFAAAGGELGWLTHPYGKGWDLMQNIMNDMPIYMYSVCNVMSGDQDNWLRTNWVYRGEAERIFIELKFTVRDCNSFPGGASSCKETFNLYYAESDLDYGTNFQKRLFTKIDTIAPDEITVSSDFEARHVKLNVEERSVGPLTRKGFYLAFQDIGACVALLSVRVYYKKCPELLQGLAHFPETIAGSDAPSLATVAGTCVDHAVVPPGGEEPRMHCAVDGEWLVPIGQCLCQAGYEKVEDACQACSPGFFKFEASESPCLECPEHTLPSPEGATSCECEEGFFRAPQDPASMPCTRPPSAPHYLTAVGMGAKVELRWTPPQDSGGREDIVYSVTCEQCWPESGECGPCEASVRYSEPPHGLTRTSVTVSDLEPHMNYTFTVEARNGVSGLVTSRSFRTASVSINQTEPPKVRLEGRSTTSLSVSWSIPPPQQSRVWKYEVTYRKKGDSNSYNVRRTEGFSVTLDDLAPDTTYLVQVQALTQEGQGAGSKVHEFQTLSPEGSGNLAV

For CSCC[C@H](NC(=O)[C@H](C)NC(=O)[C@H](CCSC)NC(=O)[C@H](CO)NC(=O)[C@@H]1CCCN1C(=O)[C@H](Cc1ccc(O)cc1)NC(=O)[C@@H](N)CC(=O)O)C(=O)N[C@@H](Cc1ccc(O)cc1)C(=O)N[C@@H](CO)C(=O)N1CCC[C@H]1C(=O)N[C@@H](CO)C(=O)N[C@H](C(=O)N[C@@H](CCCCNC(=O)CCCc1cn(CCCCCCOC(=O)COCC(=O)O[C@@H](C(=O)O[C@H]2C[C@@]3(O)[C@@H](OC(=O)c4ccccc4)[C@@H]4[C@]5(OC(C)=O)CO[C@@H]5C[C@H](O)[C@@]4(C)C(=O)[C@H](OC(C)=O)C(=C2C)C3(C)C)[C@@H](NC(=O)c2ccccc2)c2ccccc2)nn1)C(=O)O)C(C)C [DYP-PTX, DYPSMAMYSPSV- K*-PTX] (H-DYPSMAMYSPSVK(X1)-OH; N-terminus and C-terminus assumed), the “EphA2 internalization into lysosomes” value (EphA2 [1]) was “does not trigger EphA2 internalization”, the “Qdot uptake / targeting of cells” value (EphA2 [2]) was “does not target PC3 cells” and the “displacement of ephrin-A5” value (EphA2 Fc) was “neither of the control compounds, DYP motif nor DYP-PTX conjugate, show any detectable displacement of ephrin-A5”. For the same molecule, the “cell death / viability of PC3 cells” value (PC3 cells [3]) was “no significant cell killing”.

For CC(=O)O[C@H]1C(=O)[C@@]2(C)[C@H]([C@H](OC(=O)c3ccccc3)[C@]3(O)C[C@H](OC(=O)[C@H](O)[C@@H](NC(=O)c4ccccc4)c4ccccc4)C(C)=C1C3(C)C)[C@]1(OC(C)=O)CO[C@@H]1C[C@@H]2O [PTX, paclitaxel, reference compound], the concentration at 30 min ([4]; SCID-beige, mouse, plasma, intravenous, 25 mg/kg) was 771 ± 585 ng/mL.

In the case of CSCC[C@H](NC(=O)[C@H](CCSC)NC(=O)[C@@H]1CCCN1C(=O)[C@@H](NC(=O)[C@H](CO)NC(=O)[C@H](CC(=O)O)NC(=O)[C@@H]1CCCN1C(=O)[C@H](Cc1ccc(O)cc1)NC(=O)[C@H](C)NC(=O)[C@H](CO)NC(=O)[C@@H](N)Cc1ccc(O)cc1)C(C)C)C(=O)N[C@@H](CO)C(=O)N[C@@H](CCCCNC(=O)CCCc1cn(CCCCCCOC(=O)COCC(=O)O[C@@H](C(=O)O[C@H]2C[C@@]3(O)[C@@H](OC(=O)c4ccccc4)[C@@H]4[C@]5(OC(C)=O)CO[C@@H]5C[C@H](O)[C@@]4(C)C(=O)[C@H](OC(C)=O)C(=C2C)C3(C)C)[C@@H](NC(=O)c2ccccc2)c2ccccc2)nn1)C(=O)O [YSA-PTX], the half-life at 4 μM (Microsomal stability) is reported as 23 min, the “time to nearly complete release of native paclitaxel” value (PC3 cells [5]) is reported as “about 60 minutes” and the signs of toxicity (PC3 tumor xenografts) is reported as “no adverse signs of toxicity”. For the same molecule, the mouse body weights (PC3 tumor xenografts; versus vehicle control) was “not affected”, the “Plasma levels of PTX” value ([4]; 30 min after single equimolar intravenous dose (PTX 25 mg/kg)) was 998 ± 742 ng/mL and the half-life at 1 μM (Plasma stability) was 43 min. For the same molecule, the “cell death / viability of PC3 cells” value (PC3 cells [3]) was “retained the ability of paclitaxel to induce cell death at low nanomolar concentrations”.
